What was measured:
HGF-1 cells = test: Cell viability of HGF-1 cells incubated with deferoxamine; type: cell-based, human; conditions: HGF-1, deferoxamine 50, 100, 150 μM
Protocol: To better characterize the effectiveness of an iron chelator in regulating the upregulation of MMPs, HGF-1 cells were incubated with varying therapeutically relevant concentrations of deferoxamine (50, 100, 150 μM).

MMP-2 = test: Western blot of MMP-2 in HGF-1 cells treated with FAC, CMK or deferoxamine; type: cell-based, human; conditions: HGF-1, FAC 20, 50 and 100 μM, 48 hours, FIG. 7
Protocol: (§1) MMP inhibition was tested using CMK and deferoxamine (DES). Ferric ammonium citrate solid (FAC, Amresco) was prepared in 1 mM hydrochloric acid to form a 50 mM stock solution. Iron solutions were freshly made for each experiment and the iron content quantified through a colorimetric assay. Cells were induced with FAC concentrations of 20, 50, and 100 μM, LPS and CMK or a combination, and the cells were allowed to grow in the incubator for 48 hours.
(§2) During the protein extraction, media was collected, flash frozen and saved for later analysis, including Western Blot and ELISA. Cells were washed with cold PBS and lysed with RIPA buffer (150 mM NaCl, 50 mM Tris, 1% Sodium deoxycholate, 1% Triton X-100 and 0.1% SDS). Cells were collected with a cell scraper and centrifuged at 14000 rpms for 30 minutes. The supernatant was collected and assayed for protein concentration. Samples were mixed with 4×SDS loading buffer (40% Glycerol, 8% SDS, 200 mM Tris-HCl, 400 mM dithiothreitol, 0.005% bromophenol blue) for further analysis.
(§3) Gel electrophoresis was conducted using 12% sodium dodecyl sulfate (SDS) and polyacrylamide gels. Equal amounts (30-50 μg) of protein were loaded in each lane and allowed to separate for 1 hour at 150 V.
(§4) Proteins from gels were transferred into 0.45 μm nitrocellulose paper (Bio-Rad) using tris-glycine transfer buffer with 20% methanol using 400 mAmp for 90 minutes. […]

MMP-13 = conditions: HGF-1, FAC 20, 50 and 100 μM, 48 hours, FIG. 8
Protocol: as §1, §2, §3, §4

MMP-14 = test: Western blot of MMP-14 in HGF-1 cells treated with FAC, CMK or deferoxamine; type: cell-based, human; conditions: HGF-1, FAC 20, 50 and 100 μM, 48 hours, FIG. 9
Protocol: as §1, §2, §3, §4

Human MMP-8; MMP8 = conditions: HGF-1, 100 μM FAC, FIG. 17
Protocol: (§5) Gene expression of MMPs was evaluated after treatment with CMK and deferoxamine. Tissue culture was washed with 1×PBS prior to collection of samples. Cells were lysed and RNA purified using an RNeasy mini kit (Cat #74104) from Qiagen. RNA prep Kit was used according to manufacturer's protocol. All samples were treated with Qiagen DNase (Cat #79254). One microgram of RNA was used for reverse transcription and subsequent SYBR® Green real time PCR for the genes of interest as previously described. Reverse transcription kits (Cat #330401) and SYBR Green real-time PCR master mixes (Cat #330523) were purchased from Qiagen (Louisville, KY).
(§6) The following primers and probes were used: Human MMP-2; MMP2 (Cat #PPH00151B), Human MMP-8; MMP8 (Cat #PPH00908C), Human MMP-13; MMP13 (Cat #PPH00121B), Human MMP-14; MMP14 (Cat #PPH00198C), and Human glyceraldehyde 3-phosphate dehydrogenase; GAPDH (Cat #PPH00150F).
(§7) FIG. 17 is a summary of the qPCR analysis for each MMP.

MMPs = conditions: HGF-1, 100 μM FAC, FIG. 17
Protocol: as §5, §6, §7

MMP-3 = type: cell-based, human; conditions: HGF-1 stimulated with FAC 20, 50 and 100 μM, 48 hours, FIG. 11
Protocol: MMP inhibition was tested using CMK and deferoxamine (DES).
The supernatant was collected and assayed for protein concentration.

MMP-9 = test: Western blot of MMP-9 in HGF-1 cells treated with FAC or deferoxamine; type: cell-based, human; conditions: HGF-1 stimulated with FAC 20, 50 and 100 μM, 48 hours, FIG. 10
Protocol: as §1, §2, §3, §4

Molecule	Cell viability (HGF-1 cells)	presence of MMP-2 protein (MMP-2)	presence of MMP-13 protein (MMP-13)	presence of MMP-14 protein (MMP-14)	MMP-8 gene expression (qPCR) (Human MMP-8; MMP8)	gene expression of the MMPs (qPCR) (MMPs)	MMP-3 protein expression (MMP-3)	MMP-9 protein expression (MMP-9)
CC(=O)N(O)CCCCCNC(=O)CCC(=O)N(O)CCCCCNC(=O)CCC(=O)N(O)CCCCCN [deferoxamine]	unaffected							
Ferric ammonium citrate [FAC]		dose-dependent increased presence	dose-dependent increased presence	dose-dependent increased presence	except for MMP-8	acted as an inducer of gene expression of the MMPs	increased expression	increased expression

Source: US20250032403A1, “COMPOSITIONS FOR TREATING PERIODONTAL DISEASES” (GR Biosystems, Inc., priority 2017, published 2025)
